US9187472B2 (AbbVie Inc., priority 2012, dated 2015)

Experiments:
[1] = target: NAMPT (human, recombinant, C-terminally His-tagged) (Homo sapiens, UniProt P43490); assay: Time-Resolved Fluorescence Resonance Energy Transfer (TR-FRET) Binding Assay of NAMPT; settings: without substrates; 6.8 nM NAMPT, 200 nM probe, 3 hours equilibration
Protocol: Determination of the utility of compounds having Formula (I) as binders to and inhibitors of NAMPT was performed using Time-Resolved Fluorescence Resonance Energy Transfer (TR-FRET) binding assays.
Time-Resolved Fluorescence Resonance Energy Transfer (TR-FRET) Binding Assay of NAMPT
Test compounds were serially diluted (typically 11 half log dilutions) in neat DMSO to 50× final concentrations prior to dilution with assay buffer (50 mM HEPES (NaOH), pH 7.5, 100 mM NaCl, 10 mM MgCl2, 1 mM DTT, 1% Glycerol) to 3× and 6% DMSO. Six μL were transferred to 384-well low-volume plates (Owens Corning #3673). To this, […] of a 1.5× solution containing enzyme, probe and antibody were added. Final concentrations in the 18 μL, reactions were 1× assay buffer, 2% DMSO, 6.8 nM NAMPT (human, recombinant, C-terminally His-tagged), 200 nM probe (a potent nicotinamide-competitive inhibitor conjugated to Oregon Green 488) and 1 nM Tb-anti-His antibody (Invitrogen # PV5895). Reactions were equilibrated at room temperature for 3 hours prior to reading on an Envision multi-label plate reader (Perkin Elmer; Ex=337 nm, Em=520 and 495 nm). Time-resolved FRET ratios (Em520/Em495) were normalized to controls, plotted as a function of compound concentration and fit with the four-parameter logistic equation to determine IC50s.

NAMPT = NAMPT (Homo sapiens, UniProt P43490); assay: TR-FRET Binding Assay of NAMPT with PRPP; settings: with 200 μM PRPP and 2.5 mM ATP; 2 nM NAMPT, 2 nM probe, 16 hours equilibration
Sequence of NAMPT (P43490 whole entry): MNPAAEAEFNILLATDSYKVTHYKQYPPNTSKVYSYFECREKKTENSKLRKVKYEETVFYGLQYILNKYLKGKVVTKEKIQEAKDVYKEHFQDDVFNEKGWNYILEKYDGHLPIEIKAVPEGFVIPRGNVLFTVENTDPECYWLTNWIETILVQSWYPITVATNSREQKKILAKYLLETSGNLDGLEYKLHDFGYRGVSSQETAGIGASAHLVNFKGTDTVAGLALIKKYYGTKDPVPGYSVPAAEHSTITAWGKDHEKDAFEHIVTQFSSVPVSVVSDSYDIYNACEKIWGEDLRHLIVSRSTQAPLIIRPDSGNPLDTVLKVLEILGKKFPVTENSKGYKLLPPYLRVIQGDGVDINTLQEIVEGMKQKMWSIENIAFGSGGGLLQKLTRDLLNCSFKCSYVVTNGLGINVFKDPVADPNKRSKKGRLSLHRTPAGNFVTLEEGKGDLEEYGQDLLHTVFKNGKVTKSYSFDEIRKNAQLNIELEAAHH
Protocol: Time-Resolved Fluorescence Resonance Energy Transfer (TR-FRET) Binding Assay of NAMPT with PRPP
Compound handling and data processing were identical to the assay in the absence of substrates (above). Final concentrations were 1× assay buffer, 2% DMSO, 2 nM NAMPT, 2 nM probe, 1 nM Tb-anti-His antibody (Invitrogen # PV5895), 200 μM PRPP and 2.5 mM ATP. Reactions were equilibrated for 16 hours prior to measurement to allow for potential enzymatic modification of test compounds.

PC3 cells = assay: NAMPT Cell Proliferation Assay; assay type: cell-based; settings: Homo sapiens, PC-3, 120 h, 5 days incubation, cell viability by Cell Titer Glo
How it was run: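 Seed PC3 at 500 cells/well (RPMI, 10% HI-FBS), attach overnight; add compound, 10-fold series 10 μM → 1×10^−5 μM; incubate 5 d, 37° C/5% CO2; luminescent viability readout; fit % inhibition sigmoidally for IC50.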

Sequence of NAMPT (human, recombinant, C-terminally His-tagged) (P43490 whole entry): as above

Row | IC50 [1] [nM] | IC50 (NAMPT) [nM] | IC50 (PC3 cells) [nM] | Compound
1 | 21.3 | 0.471 | 5.9 | CC(C)(C(=O)N1CCC(c2ccc(C(=O)NCc3ccn4ccnc4c3)cc2)C1)c1ccccc1 (stereo not drawn) [Example 732, N-(imidazo[1,2-a]pyridin-7-ylmethyl)-4-[1-(2-methyl-2-phenylpropanoyl)pyrrolidin-3-yl]benzamide]
2 | 78.4 | 0.214 | 22.1 | CC[C@H](C)C(=O)N1CC(O)(c2ccc(C(=O)NCc3ccn4ccnc4c3)s2)C1 [Example 405, 5-{3-hydroxy-1-[(2S)-2-methylbutanoyl]azetidin-3-yl}-N-(imidazo[1,2-a]pyridin-7-ylmethyl)thiophene-2-carboxamide]
3 | 23.1 | 0.398 | 1.02 | Cc1ccsc1C(=O)N1CCC(c2ccc(C(=O)NCc3ccn4ccnc4c3)s2)C1 (stereo not drawn) [Example 793, N-(imidazo[1,2-a]pyridin-7-ylmethyl)-5-{1-[(3-methylthiophen-2-yl)carbonyl]pyrrolidin-3-yl}thiophene-2-carboxamide]
4 | > 10000 | 216 | > 10000 | O=C(NCc1ccn2ccnc2c1)c1ccc(C(=O)N2CCCCC2)cc1 [Example 566, N-(imidazo[1,2-a]pyridin-7-ylmethyl)-4-(piperidin-1-ylcarbonyl)benzamide]
5 | 4070 | 1.41 | 2610 | O=C(NCc1ccc2nccn2c1)c1cnc(N2CCc3ccccc3CC2)s1 [Example 85, N-(imidazo[1,2-a]pyridin-6-ylmethyl)-2-(1,2,4,5-tetrahydro-3H-3-benzazepin-3-yl)-1,3-thiazole-5-carboxamide]

The remaining lines, values behind:

Row | Compound | IC50 [1] [nM] | IC50 (NAMPT) [nM] | IC50 (PC3 cells) [nM]
6 | O=C(NCc1ccn2ccnc2c1)c1ccc(-c2cnn(CC3COCCO3)c2)s1 (stereo not drawn) [Example 316, 5-[1-(1,4-dioxan-2-ylmethyl)-1H-pyrazol-4-yl]-N-(imidazo[1,2-a]pyridin-7-ylmethyl)thiophene-2-carboxamide] | 42.1 | 0.169 | 6.34
7 | O=C(NCc1ccn2ccnc2c1)c1ccc(C2CCN(S(=O)(=O)c3ccccc3)C2)cc1 (stereo not drawn) [Example 627, N-(imidazo[1,2-a]pyridin-7-ylmethyl)-4-[1-(phenylsulfonyl)pyrrolidin-3-yl]benzamide] | 211 | 0.71 | 17.5
8 | CC(C)CCNC(=O)c1ccc(NC(=O)Nc2ccc3nccn3c2)cc1 [Example 1, 4-[(imidazo[1,2-a]pyridin-6-ylcarbamoyl)amino]-N-(3-methylbutyl)benzamide] | 92.1 | 0.72 | 60.9
9 | CC(C)C(=O)N1CC=C(c2ncc(C(=O)NCc3ccn4ccnc4c3)s2)CC1 [Example 320, N-(imidazo[1,2-a]pyridin-7-ylmethyl)-2-[1-(2-methylpropanoyl)-1,2,3,6-tetrahydropyridin-4-yl]-1,3-thiazole-5-carboxamide] | 96.3 | 0.208 | 171
10 | O=C(NCc1ccn2ccnc2c1)Nc1ccc(O[C@@H]2CCN(C(=O)[C@H]3CCCO3)C2)cc1 [Example 335, 1-(imidazo[1,2-a]pyridin-7-ylmethyl)-3-[4-({(3R)-1-[(2R)-tetrahydrofuran-2-ylcarbonyl]pyrrolidin-3-yl}oxy)phenyl]urea] | 632 | 0.354 | 97.6
11 | O=C(NCc1ccc2nccn2c1)c1cnc(N(CC2CCCO2)C(=O)CCc2cnoc2)s1 (stereo not drawn) [Example 135, N-(imidazo[1,2-a]pyridin-6-ylmethyl)-2-{[3-(1,2-oxazol-4-yl)propanoyl](tetrahydrofuran-2-ylmethyl)amino}-1,3-thiazole-5-carboxamide] | 73.8 | 1.27 | 6.36
12 | Cc1ccccc1C(=O)N1CCC(c2ccc(C(=O)NCc3ccn4ccnc4c3)s2)C1 (stereo not drawn) [Example 794, N-(imidazo[1,2-a]pyridin-7-ylmethyl)-5-[1-(2-methylbenzoyl)pyrrolidin-3-yl]thiophene-2-carboxamide] | 29 | 0.465 | 0.883
